For assay [1], the system named is HCV Genotype 1A Replicon. The assay can be described thus: Replicon assay, genotype 1a subgenomic replicon, luciferase readout. Type of assay: cell-based. Particulars: Hepatitis C virus, 48 h, Table 3; luciferase activity after 48 hours. The procedure: (§1) Compounds were assayed for activity against HCV using the genotype 1a and 1b subgenomic replicon model systems. Stable cell lines bearing the genotype 1a and 1b replicons were used for screening of compounds. Both replicons are bicistonic and contain the firefly luciferase gene. The ET cell line is stably transfected with RNA transcripts harboring a I389luc-ubi-neo/NS3-3′/ET replicon with firefly luciferase-ubiquitin-neomycin phosphotransferase fusion protein and EMCV-IRES driven NS3-5B polyprotein containing the cell culture adaptive mutations (E1202G; T12801; K1846T) (Krieger at al, 2001 and unpublished). The genotype 1a replicon is a stable cell line licensed from Apath LLC, modified to contain the firefly luciferase gene. The cells were grown in DMEM, supplemented with 10% fetal calf serum, 2 mM Glutamine, Penicillin (100 IU/mL)/Streptomycin (100 μg/mL), 1× nonessential amino acids, and 250-500 μg/mL G418 (“Geneticin”). They were all available through Life Technologies (Bethesda, Md.). The cells were plated at 0.5×10^4 cells/well in 384 well plates containing compounds. The final concentration of compounds ranged between 0.03 μM to 50 μm and the final DMSO concentration of 0.5-1%.
(§2) Luciferase activity was measured 48 hours later by adding a Steady glo (Promega, Madison, Wis.). Percent inhibition of replication data was plotted relative to no compound control. Under the same condition, cytotoxicity of the compounds was determined using cell titer glo (Promega, Madison, Wis). IC50s were determined from a 10 point dose response curve using 3-4-fold serial dilution for each compound, which spans a concentration range >1000 fold. BioAssay determines the level of inhibition for each compound by normalizing cross-talk corrected plate values against the negative […] controls to determine Percent Inhibition:
(§3) These normalized values are exported to EC50 where they are plotted against the molar compound concentrations using the standard four parameter logistic equation: […]
(§4) Some EC50 measurements were repeated a second time and for both 1A and 1B genotypes after those reported in Table 2 for compounds 101-108 and the repeated data was reported in Table 3.

In assay [2] the test system is HCV Genotype 1B Replicon. Briefly: Replicon assay, genotype 1b subgenomic replicon (ET cell line), luciferase readout. Type of assay: cell-based. The note with it: Hepatitis C virus, 48 h, Table 3; luciferase activity after 48 hours. The procedure:
as §1, §2, §3, §4

Molecules are shown by their SMILES.

In the case of `CO[C@H]1CN(C(=O)c2nc3c(C(F)(F)F)cc(-c4ccoc4)cn3c2Cl)CC[C@@H]1N1CCOC1=O` (racemic) [Compound 236, (±) trans-3-[1-{[3-chloro-6-(3-furanyl)-8-(trifluoromethyl)imidazo[1,2-a]pyridin-2-yl]carbonyl}-3-(methyloxy)-4-piperidinyl]-1,3-oxazolidin-2-one], the EC50 in assay [1] and in assay [2] was at least 5010 nM in each case.

For `CO[C@H]1CN(C(=O)c2nc3c(C(F)(F)F)cc(Br)cn3c2Cl)CC[C@@H]1N1CCOC1=O` (racemic) [Compound 237, (±) trans-3-[1-{[6-bromo-3-chloro-8-(trifluoromethyl)imidazo[1,2-a]pyridin-2-yl]carbonyl}-3-(methyloxy)-4-piperidinyl]-1,3-oxazolidin-2-one], the EC50 in assay [1] and in assay [2] was at least 5010 nM in each case.

With `CO[C@H]1CN(C(=O)c2nc3c(C(F)(F)F)cc(C4CC4)cn3c2Cl)CC[C@@H]1N1CCOC1=O` (racemic) [Compound 238, (±) trans-3-[1-{[3-chloro-6-cyclopropyl-8-(trifluoromethyl)imidazo[1,2-a]pyridin-2-yl]carbonyl}-3-(methyloxy)-4-piperidinyl]-1,3-oxazolidin-2-one], the EC50 in assay [1] and in assay [2] was at least 5010 nM in each case.

Turning to `O=C(c1nc2c(C(F)(F)F)cc(C3CC3)cn2c1Cl)N1CC[C@@H](N2CCOC2=O)[C@H](O)C1` (single isomer, unassigned; enantiomer 1) [Compound 220, 3-((trans)-1-{[3-chloro-6-cyclopropyl-8-(trifluoromethyl)imidazo[1,2-a]pyridin-2-yl]carbonyl}-3-hydroxy-4-piperidinyl)-1,3-oxazolidin-2-one (Enantiomer 1)], the EC50 in assay [1] was found to be 20 nM; in assay [2], 30 nM.

As for `O=C1CN(C(=O)c2nc3c(C(F)(F)F)cc(C4CC4)cn3c2Cl)CC[C@@H]1N1CCOC1=O` (stereo in doubt) [Compound 232, 1-{[3-chloro-6-cyclopropyl-8-(trifluoromethyl)imidazo[1,2-a]pyridin-2-yl]carbonyl}-4-(2-oxo-1,3-oxazolidin-3-yl)-3-piperidinone], the figures for the half-maximal effective concentration (EC50) in assay [1] and in assay [2] were 60 nM and 80 nM, respectively.

Regarding `O=C(c1nc2c(C(F)(F)F)cccn2c1Cl)N1CCC(N2CCCC2=O)CC1` [Compound 109, 1-(1-{[3-chloro-8-(trifluoromethyl)imidazo[1,2-a]pyridin-2-yl]carbonyl}-4-piperidinyl)-2-pyrrolidinone], the EC50 stood at 38000 nM in assay [1] and 28200 nM in assay [2].

On to `O=C(c1nc2c(C(F)(F)F)cc(Cl)cn2c1Cl)N1CCC(N2CCCC2=O)CC1` [Compound 110, 1-(1-{[3,6-dichloro-8-(trifluoromethyl)imidazo[1,2-a]pyridin-2-yl]carbonyl}-4-piperidinyl)-2-pyrrolidinone], for which the EC50 in assay [1] stood at 1740 nM; in assay [2], 800 nM.

On to `O=C(c1nc2c(C(F)(F)F)cccn2c1Cl)N1CCC(N2CCOC2=O)CC1` [Compound 111, 3-(1-{[3-chloro-8-(trifluoromethyl)imidazo[1,2-a]pyridin-2-yl]carbonyl}-4-piperidinyl)-1,3-oxazolidin-2-one], for which the EC50 in assay [1] was at least 5010 nM; in assay [2] it was 11800 nM.

On to `O=C(c1nc2c(C(F)(F)F)cc(Cl)cn2c1Cl)N1CCC(N2CCOC2=O)CC1` [Compound 112, 3-(1-{[3,6-dichloro-8-(trifluoromethyl)imidazo[1,2-a]pyridin-2-yl]carbonyl)-4-piperidinyl)-1,3-oxazolidin-2-one], for which the EC50 in assay [1] was found to be 130 nM; in assay [2], 170 nM.

Turning to `O=C(c1nc2c(C(F)(F)F)cc(-c3ccncc3)cn2c1Cl)N1CCC(N2CCOC2=O)CC1` [Compound 113], the concentration for a half-maximal effect (EC50) in assay [1] is 740 nM; in assay [2] it was 9660 nM.

For `O=C(c1nc2c(C(F)(F)F)cc(-c3cccc(F)c3)cn2c1Cl)N1CCC(N2CCOC2=O)CC1` [Compound 114], the EC50 in assay [1] is 30 nM; in assay [2] it was 310 nM.

Take `O=C(c1nc2c(C(F)(F)F)cc(-c3ccc(F)cc3)cn2c1Cl)N1CCC(N2CCOC2=O)CC1` [Compound 115, 3-(1-{[3-chloro-6-(4-fluorophenyl)-8-(trifluoromethyl)imidazo[1,2-a]pyridin-2-yl]carbonyl}-4-piperidinyl)-1,3-oxazolidin-2-one]: the EC50 in assay [1] was 60 nM; in assay [2], 3690 nM.

As to `COc1ccccc1-c1cc(C(F)(F)F)c2nc(C(=O)N3CCC(N4CCOC4=O)CC3)c(Cl)n2c1` [Compound 116], the results for the EC50 in assay [1] and in assay [2] were 360 nM and 7410 nM, respectively.

For `COc1cccc(-c2cc(C(F)(F)F)c3nc(C(=O)N4CCC(N5CCOC5=O)CC4)c(Cl)n3c2)c1` [Compound 117], the EC50 in assay [1] was 470 nM; in assay [2], 2540 nM.

In the case of `COc1ccc(-c2cc(C(F)(F)F)c3nc(C(=O)N4CCC(N5CCOC5=O)CC4)c(Cl)n3c2)cc1` [Compound 118], the half-maximal effective concentration (EC50) in assay [1] was determined as 150 nM; in assay [2], 17600 nM.

In the case of `O=C(c1nc2c(C(F)(F)F)cc(-c3ccsc3)cn2c1Cl)N1CCC(N2CCOC2=O)CC1` [Compound 119], the 50% effective concentration (EC50) stood at 10 nM in assay [1] and 50 nM in assay [2].

Regarding `O=C(c1nc2c(C(F)(F)F)cc(-c3cccc4cccnc34)cn2c1Cl)N1CCC(N2CCOC2=O)CC1` [Compound 120], the results for the concentration for a half-maximal effect (EC50) in assay [1] and in assay [2] were 290 nM and 36000 nM, respectively.

Turning to `O=C(c1nc2c(C(F)(F)F)cc(-c3ccccc3O)cn2c1Cl)N1CCC(N2CCOC2=O)CC1` [Compound 121], the EC50 in assay [1] came to 440 nM; in assay [2] it was 2850 nM.

For the compound `O=C(c1nc2c(C(F)(F)F)cc(-c3cccc(O)c3)cn2c1Cl)N1CCC(N2CCOC2=O)CC1` [Compound 122], the EC50 came to 2340 nM in assay [1] and 15800 nM in assay [2].

Turning to `O=C(c1nc2c(C(F)(F)F)cc(-c3ccc(O)cc3)cn2c1Cl)N1CCC(N2CCOC2=O)CC1` [Compound 123], the EC50 in assay [1] amounted to 30 nM; in assay [2], 380 nM.

With `Cn1cc(-c2cc(C(F)(F)F)c3nc(C(=O)N4CCC(N5CCOC5=O)CC4)c(Cl)n3c2)cn1` [Compound 124], the EC50 in assay [1] came to 30 nM; in assay [2], 3470 nM.

With `CCn1cc(-c2cc(C(F)(F)F)c3nc(C(=O)N4CCC(N5CCOC5=O)CC4)c(Cl)n3c2)cn1` [Compound 125], the concentration for a half-maximal effect (EC50) in assay [1] is 90 nM; in assay [2], 13300 nM.

On to `CC(C)Cn1cc(-c2cc(C(F)(F)F)c3nc(C(=O)N4CCC(N5CCOC5=O)CC4)c(Cl)n3c2)cn1` [Compound 126, 3-(1-{[3-chloro-6-[1-(2-methylpropyl)-1H-pyrazol-4-yl]-8-(trifluoromethyl)imidazo[1,2-a]pyridin-2-yl]carbonyl}-4-piperidinyl)-1,3-oxazolidin-2-one], for which the 50% effective concentration (EC50) in assay [1] was 13600 nM; in assay [2], at least 50100 nM.

As for `O=C(c1nc2c(C(F)(F)F)cc(C3CCCC3)cn2c1Cl)N1CCC(N2CCOC2=O)CC1` [Compound 127, 3-(1-{[3-chloro-6-cyclopentyl-8-(trifluoromethyl)imidazo[1,2-a]pyridin-2-yl]carbonyl}-4-piperidinyl)-1,3-oxazolidin-2-one], the EC50 in assay [1] is 10 nM; in assay [2], 170 nM.

As to `O=C(c1nc2c(C(F)(F)F)cc(C3CCC3)cn2c1Cl)N1CCC(N2CCOC2=O)CC1` [Compound 128, 3-(1-{[3-chloro-6-cyclobutyl-8-(trifluoromethyl)imidazo[1,2-a]pyridin-2-yl]carbonyl}-4-piperidinyl)-1,3-oxazolidin-2-one], the EC50 came to 10 nM in assay [1] and 30 nM in assay [2].

On to `CCCc1cc(C(F)(F)F)c2nc(C(=O)N3CCC(N4CCOC4=O)CC3)c(Cl)n2c1` [Compound 129, 3-(1-{[3-chloro-6-propyl-8-(trifluoromethyl)imidazo[1,2-a]pyridin-2-yl]carbonyl}-4-piperidinyl)-1,3-oxazolidin-2-one], for which the EC50 in assay [1] was found to be 20 nM; in assay [2], 120 nM.

Regarding `CC(C)Cc1cc(C(F)(F)F)c2nc(C(=O)N3CCC(N4CCOC4=O)CC3)c(Cl)n2c1` [Compound 130, 3-(1-{[3-chloro-6-(2-methylpropyl)-8-(trifluoromethyl)imidazo[1,2-a]pyridin-2-yl]carbonyl}-4-piperidinyl)-1,3-oxazolidin-2-one], the results for the half-maximal effective concentration (EC50) in assay [1] and in assay [2] were 20 nM and 50 nM, respectively.

As for `CCCCc1cc(C(F)(F)F)c2nc(C(=O)N3CCC(N4CCOC4=O)CC3)c(Cl)n2c1` [Compound 131], the EC50 amounted to 10 nM in assay [1] and 700 nM in assay [2].

`COc1cc(C(F)(F)F)c2nc(C(=O)N3CCC(N4CCOC4=O)CC3)c(Cl)n2c1` [Compound 132, 3-(1-{[3-chloro-6-(methyloxy)-8-(trifluoromethyl)imidazo[1,2-a]pyridin-2-yl]carbonyl}-4-piperidinyl)-1,3-oxazolidin-2-one]: the EC50 was 130 nM in assay [1] and 210 nM in assay [2].

For the origin of these results see patent US20100272680A1, “Piperidinyl Cyclic Amido Antiviral Agents” (priority 2009, published 2010).
